The text below walks through data of publication PMC7891422, “Tryptophan Analogues with Fixed Side‐Chain Orientation: Expanding the Scope” (Chembiochem, 2020).

SMILES strings stand for the structures.

The assay addresses T1, ghrelin receptor (Homo sapiens, UniProt Q92847).
T1 construct: expressed in transfected cells; host or cells: COS7 cells (stably transfected)
Description: IP‐One assay (Cisbio IP-One Gq kit), inverse agonist activity. The format is cell-based. Conditions: mean±SEM of at least two independent experiments.
Description: The four peptides and two known inverse agonists were tested towards their activity on the ghrelin receptor that was stably transfected in COS7 cells and examined in the Cisbio IP‐One assay as described in the supplementary section.
The assay was carried out in COS7 cells that were stably transfected with the ghrelin receptor. Data are the mean ±SEM of at least two independent experiments performed in triplicate.
IP-One assay COS7 cells stably transfected with the ghrelin receptor fused C-terminally to eYFP were cultured in a humidified atmosphere at 37 °C and 5% CO2 in Dulbecco's modified Eagle's medium with higher glucose supplemented with 10% (v/v) FCS and 0.4 mg/ml hygromycin B. Cisbio IP-One Gq assay kit was used according to previous description.[4] Shortly, 10000 cells/well were seeded out in a 384-well flat white plate and on the next day, stimulation was carried out in triplicates for 3h. 3 µl IP1-d2 and 3 µl Ab-cryptate were added and incubated on a tumbler for 60 min. Fluorescence was measured at 620 nm and 665 nm. HTRF ratio was calculated as the ratio 665/620. Obtained data were analyzed with GraphPad Prism 5.0 (GraphPad Software, San Diego, USA)
Emax is the efficacy of the peptide and represents the difference between constitutive activity and activity at maximal effect of the peptide. EC50 is the peptide concentration at half-

T1 sequence (Q92847 whole entry, species assumed): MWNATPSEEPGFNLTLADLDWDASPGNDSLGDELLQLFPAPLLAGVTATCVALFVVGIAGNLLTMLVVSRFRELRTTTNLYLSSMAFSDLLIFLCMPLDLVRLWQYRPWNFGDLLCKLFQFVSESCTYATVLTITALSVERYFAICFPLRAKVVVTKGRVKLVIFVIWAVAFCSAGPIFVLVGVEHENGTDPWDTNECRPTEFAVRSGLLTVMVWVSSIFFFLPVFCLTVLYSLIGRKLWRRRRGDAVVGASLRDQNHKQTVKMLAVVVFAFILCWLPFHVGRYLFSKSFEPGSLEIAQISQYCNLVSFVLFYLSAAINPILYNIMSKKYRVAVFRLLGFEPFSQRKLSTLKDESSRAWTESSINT

Take `CC(C)C[C@H](NC(=O)[C@H](CC(C)C)NC(=O)[C@@H](Cc1c[nH]c2ccccc12)NC(=O)[C@H](Cc1ccccc1)NC(=O)[C@@H](Cc1c[nH]c2ccccc12)NC(=O)[C@@H](N)CCCCN)C(N)=O` [Peptide 4, KwFwLL‐NH2]: the “E max±SEM” value (efficacy = difference between constitutive activity and activity at maximal effect, normalized to KbFwLL‐NH2 (3)) is given as 66±3 Δ%. Further, the EC50 (inverse agonism, COS7 cells stably transfected with ghrelin receptor-eYFP, 3 h stimulation) was 234 nM.
